Experimental data from patent US6706663B2, “Herbicidal 3-heterocyclic substituted benzisothiazole and benzisoxazole compounds” (Wyeth, priority 2000, dated 2004).

What was measured:
[1] = tested on: ABUTH (Abutilon theophrasti); test: Postemergence herbicidal evaluation; type: in vivo, Medic.; conditions: rate 0.0620 kg/ha
Summary of the method: (§1)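 Seedlings grown about two weeks in flats, sprayed, then kept under standard greenhouse care. Rated visually 4–5 weeks after treatment on a 0–9 scale (stand, vigour, malformation, size, chlorosis, overall appearance) relative to untreated control; repeat tests averaged.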

[2] = tested on: AMBEL (Ambrosia artemisifolia); test: Postemergence herbicidal evaluation; type: in vivo, L.; conditions: rate 0.0620 kg/ha
Summary of the method: as §1

[3] = tested on: CASOB (Cassia obtusifolia); test: Postemergence herbicidal evaluation; type: in vivo, L.; conditions: rate 0.0620 kg/ha
Summary of the method: as §1

[4] = tested on: CHEAL (Chenopodium album); test: Postemergence herbicidal evaluation; type: in vivo, L.; conditions: rate 0.0620 kg/ha
Summary of the method: as §1

[5] = tested on: GALAP (Galium aparine); test: Postemergence herbicidal evaluation; type: in vivo; conditions: rate 0.0620 kg/ha
Summary of the method: as §1

[6] = tested on: IPOHE (Ipomoea hederacea); test: Postemergence herbicidal evaluation; type: in vivo, (L.) Jacq.; conditions: rate 0.0620 kg/ha
Summary of the method: as §1

[7] = tested on: ECHCG (Echinochloa crus-galli); test: Postemergence herbicidal evaluation; type: in vivo, (L.) Beau; conditions: rate 0.0620 kg/ha
Summary of the method: as §1

[8] = tested on: SETVI (Setaria viridis); test: Postemergence herbicidal evaluation; type: in vivo, (L.) Beau; conditions: rate 0.0620 kg/ha
Summary of the method: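 Ratings use a 0-9 visual scale covering stand, vigor, malformation, size, chlorosis and appearance versus a control, scored 4-5 weeks post-spray. Roughly two-week-old seedlings received about 0.0040-1.000 kg/ha active, applied in 50/50 acetone/water with 0.5% TWEEN 20. Multiple tests per compound were averaged.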

[9] = tested on: GLXMAW (Soybean, Williams); test: Postemergence herbicidal evaluation; type: in vivo, Glycine max, (L.) Merr. cv Williams; conditions: rate 0.0620 kg/ha
Summary of the method: as §1

[10] = tested on: ORYSAT (Rice, Tebonnet); test: Postemergence herbicidal evaluation; type: in vivo, Oryza sativa, (L.) Tebonnet; conditions: rate 0.0620 kg/ha
Summary of the method: as §1

[11] = tested on: TRZAWR (Wheat, Winter, cv Riband); test: Postemergence herbicidal evaluation; type: in vivo, Triticum aestivum; conditions: rate 0.0620 kg/ha
Summary of the method: as §1

[12] = tested on: ZEAMX (Corn, Field); test: Postemergence herbicidal evaluation; type: in vivo, Zea mays, L.; conditions: rate 0.0620 kg/ha
Summary of the method: as §1

[13] = tested on: ABUTH (Abutilon theophrasti); test: Preemergence herbicidal evaluation; type: in vivo, Medic.; conditions: Rate 0.2500 kg/ha; preemergence; rated 4-5 weeks after treatment
[14] = tested on: AMBEL (Ambrosia artemisifolia); test: Preemergence herbicidal evaluation; type: in vivo, L.; conditions: Rate 0.2500 kg/ha; preemergence; rated 4-5 weeks after treatment
Summary of the method: (§2)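 Scores (0–9) reflect visual comparison with control plants for stand, vigor, malformation, size and chlorosis. Seeds in potting soil received a post-planting spray of compound in aqueous acetone and grew in a greenhouse until assessment 4–5 weeks later.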

[15] = tested on: CASOB (Cassia obtusifolia); test: Preemergence herbicidal evaluation; type: in vivo, L.; conditions: Rate 0.2500 kg/ha; preemergence; rated 4-5 weeks after treatment
Summary of the method: as §2

[16] = tested on: CHEAL (Chenopodium album); test: Preemergence herbicidal evaluation; type: in vivo, L.; conditions: Rate 0.2500 kg/ha; preemergence; rated 4-5 weeks after treatment
Summary of the method: as §2

[17] = tested on: GALAP (Galium aparine); test: Preemergence herbicidal evaluation; type: in vivo; conditions: Rate 0.2500 kg/ha; preemergence; rated 4-5 weeks after treatment
Summary of the method: as §2

[18] = tested on: IPOHE (Ipomoea hederacea); test: Preemergence herbicidal evaluation; type: in vivo, (L.) Jacq.; conditions: Rate 0.2500 kg/ha; preemergence; rated 4-5 weeks after treatment
[19] = tested on: ECHCG (Echinochloa crus-galli); test: Preemergence herbicidal evaluation; type: in vivo, (L.) Beau; conditions: Rate 0.2500 kg/ha; preemergence; rated 4-5 weeks after treatment
Summary of the method: as §2

[20] = tested on: SETVI (Setaria viridis); test: Preemergence herbicidal evaluation; type: in vivo, (L.) Beau; conditions: Rate 0.2500 kg/ha; preemergence; rated 4-5 weeks after treatment
Summary of the method: as §2

[21] = tested on: GLXMAW (Soybean, Williams); test: Preemergence herbicidal evaluation; type: in vivo, Glycine max, (L.) Merr. cv Williams; conditions: Rate 0.2500 kg/ha; preemergence; rated 4-5 weeks after treatment
[22] = tested on: ORYSAT (Rice, Tebonnet); test: Preemergence herbicidal evaluation; type: in vivo, Oryza sativa, (L.) Tebonnet; conditions: Rate 0.2500 kg/ha; preemergence; rated 4-5 weeks after treatment
[23] = tested on: TRZAWR (Wheat, Winter, cv Riband); test: Preemergence herbicidal evaluation; type: in vivo, Triticum aestivum; conditions: Rate 0.2500 kg/ha; preemergence; rated 4-5 weeks after treatment
Summary of the method: as §2

[24] = tested on: ZEAMX (Corn, Field); test: Preemergence herbicidal evaluation; type: in vivo, Zea mays, L.; conditions: Rate 0.2500 kg/ha; preemergence; rated 4-5 weeks after treatment
[25] = tested on: ECHORC (Echinochloa oryzoides); test: Flooded paddy, preemergence weed control; type: in vivo, Echinochloa oryzoides (Ard.) Fritsch.; conditions: rate 0.1250 kg/ha, rated 3-4 weeks after treatment, 0-9 rating scale
Summary of the method: (§3)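 Seeds or propagules were planted in the top 0.5 cm of silt loam soil and kept flooded 1.5–3 cm above the surface throughout, then held in the greenhouse. Injury was rated visually on a 0–9 scale against untreated controls, covering stand, vigor, malformation, size and chlorosis.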

[26] = tested on: CYPIR (Cyperus iria); test: Flooded paddy, preemergence weed control; type: in vivo; conditions: rate 0.1250 kg/ha, rated 3-4 weeks after treatment, 0-9 rating scale
Summary of the method: as §3

[27] = tested on: CYPSE (Cyperus serotinus); test: Flooded paddy, preemergence weed control; type: in vivo, Rottb.; conditions: rate 0.1250 kg/ha, rated 3-4 weeks after treatment, 0-9 rating scale
Description: Results of herbicide evaluation are expressed on a rating scale (0-9). The scale is based upon a visual observation of plant stand, vigor, malformation, size, chlorosis and overall plant appearance as compared with a control.
Preemergence herbicidal activity under flooded paddy conditions is determined as follows: plant seeds or propagating organs are planted in the top 0.5 cm of silt loam soil in 32 oz. plastic containers with a diameter of 10.5 cm and no drainage holes. Water is added to these containers and maintained at 1.5 to 3 cm above the soil surface for the duration of the experiment. The test compounds are applied as aqueous/acetone mixtures 50/50 v/v pipetted directly into the flood water to give the equivalent of about 0.0080 to 0.1250 kg/ha of active ingredient. The treated containers are placed on greenhouse benches and cared for in accordance with conventional greenhouse procedures. Three to four weeks after treatment, the test is terminated and each container is examined and herbicidal effect rated according to the rating system provided in Example 87.

[28] = tested on: MOOVA (Monochoria vaginalis); test: Flooded paddy, preemergence weed control; type: in vivo, Presl.; conditions: rate 0.1250 kg/ha, rated 3-4 weeks after treatment, 0-9 rating scale
Summary of the method: as §3

[29] = tested on: SAGPY (Sagittaria pygmaea); test: Flooded paddy, preemergence weed control; type: in vivo, L.; conditions: rate 0.1250 kg/ha, rated 3-4 weeks after treatment, 0-9 rating scale
Summary of the method: as §3

[30] = tested on: ORYSAT (Rice, Tebonnet); test: Flooded paddy, post-transplant rice tolerance; type: in vivo, Oryza sativa, (L.) Tebonnet; conditions: flooded paddy, post-transplant rice; rate 0.1250 kg/ha; rated 3-4 weeks after treatment; 0-9 rating scale
Summary of the method: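 Two ten-day-old seedlings were transplanted into silt loam, flooded and held at 1.5 to 3 cm water above the soil before herbicide treatment. Pots stayed in the greenhouse at that water level. Injury was scored visually on a 0-9 scale versus untreated control.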

Structure (SMILES) | Postemergence herbicidal rating, ABUTH [1] | Postemergence herbicidal rating, AMBEL [2] | Postemergence herbicidal rating, CASOB [3] | Postemergence herbicidal rating, CHEAL [4] | Postemergence herbicidal rating, GALAP [5] | Postemergence herbicidal rating, IPOHE [6] | Postemergence herbicidal rating, ECHCG [7] | Postemergence herbicidal rating, SETVI [8] | Postemergence herbicidal rating, GLXMAW [9] | Postemergence herbicidal rating, ORYSAT [10] | Postemergence herbicidal rating, TRZAWR [11] | Postemergence herbicidal rating, ZEAMX [12] | ABUTH preemergence herbicidal rating [13] | AMBEL preemergence herbicidal rating [14] | CASOB preemergence herbicidal rating [15] | CHEAL preemergence herbicidal rating [16] | GALAP preemergence herbicidal rating [17] | IPOHE preemergence herbicidal rating [18] | ECHCG preemergence herbicidal rating [19] | SETVI preemergence herbicidal rating [20] | further results
C[C@H]1O[C@@H]1c1nsc2ccc(-n3c(=O)cc(C(F)(F)F)n(C)c3=O)cc12 [Compound 14, 3-[3-[(1R,2R)-1,2-epoxypropyl]-1,2-benzisothiazol-5-yl]-1-methyl-6-(trifluoromethyl)uracil] | 9.0 | 9.0 | 2.0 | 8.0 | 9.0 | 9.0 | 2.0 | 3.0 | 7.5 | 6.0 | 6.5 | 6.0 | 9.0 | 9.0 | 9.0 | 9.0 | 9.0 | 9.0 | 9.0 | 9.0 | GLXMAW preemergence herbicidal rating [21]: 8.0; ORYSAT preemergence herbicidal rating [22]: 9.0; TRZAWR preemergence herbicidal rating [23]: 9.0; ZEAMX preemergence herbicidal rating [24]: 8.5; herbicidal rating, ECHORC [25]: 8.0; herbicidal rating, CYPIR [26]: 9.0; herbicidal rating, CYPSE [27]: 8.0; herbicidal rating, MOOVA [28]: 9.0; herbicidal rating, SAGPY [29]: 9.0; herbicidal rating, ORYSAT (rice tolerance) [30]: 9.0
Cn1c(C(F)(F)F)cc(=O)n(-c2ccc3snc(-c4cccnc4)c3c2)c1=O [Compound 11, 1-methyl-3-[3-(3-pyridyl)-1,2-benzisothiazol-5-yl]-6-(trifluoromethyl)uracil] | 9.0 | 9.0 | 1.0 | 8.0 | 6.0 | 9.0 | 0.0 | 7.0 | 6.5 | 3.5 | 3.5 | 5.5 | 9.0 | 9.0 | 9.0 | 9.0 | 9.0 | 7.0 | 8.0 | 9.0 | GLXMAW preemergence herbicidal rating [21]: 7.5; ORYSAT preemergence herbicidal rating [22]: 5.0; TRZAWR preemergence herbicidal rating [23]: 4.0; ZEAMX preemergence herbicidal rating [24]: 5.5; herbicidal rating, ECHORC [25]: 5.0; herbicidal rating, CYPIR [26]: 9.0; herbicidal rating, CYPSE [27]: 0.0; herbicidal rating, MOOVA [28]: 9.0; herbicidal rating, SAGPY [29]: 0.0; herbicidal rating, ORYSAT (rice tolerance) [30]: 3.0
C[C@@H]1O[C@@H]1c1nsc2ccc(-n3c(=O)cc(C(F)(F)F)n(C)c3=O)cc12 [Compound 13, 3-[3-[(1R,2S)-1,2-epoxypropyl]-1,2-benzisothiazol-5-yl]-1-methyl-6-(trifluoromethyl)uracil] | 9.0 | 9.0 | 5.0 | 6.0 | 9.0 | 7.0 | 3.0 | 7.0 | 7.0 | 3.0 | 3.0 | 5.0 | 9.0 | 9.0 | 9.0 | 9.0 | 9.0 | 9.0 | 9.0 | 9.0 | GLXMAW preemergence herbicidal rating [21]: 7.5; ORYSAT preemergence herbicidal rating [22]: 7.5; TRZAWR preemergence herbicidal rating [23]: 5.0; ZEAMX preemergence herbicidal rating [24]: 7.0; herbicidal rating, ECHORC [25]: 6.0; herbicidal rating, CYPIR [26]: 8.0; herbicidal rating, CYPSE [27]: 6.5; herbicidal rating, MOOVA [28]: 9.0; herbicidal rating, SAGPY [29]: 4.0; herbicidal rating, ORYSAT (rice tolerance) [30]: 7.5
